ChEMBL document CHEMBL2203072, “Enhanced anti-influenza agents conjugated with anti-inflammatory activity” (J Med Chem, 2012)
Calls of active or inactive are those of the source. The rule behind the calls is not given here.

Key:
[1] = biological target: Neuraminidase (Influenza A virus (strain A/Wilson-Smith/1933 H1N1) (Influenza A virus(strain A/WS/1933 H1N1)), UniProt P03470); experiment: Inhibition of Influenza A virus A/WSN/1933(H1N1)) neuraminidase in the presence of 2'-(4-methyl-umbelliferyl)-alphaD-N-acetylneuraminic acid substrate after 10 mins by fluorometric assay
[2] = system: MDCK; experiment: Cytotoxicity against MDCK cells at 100 uM; type: cell-based, Canis lupus familiaris; conditions: dog
[3] = system: Influenza A virus; experiment: Antiviral activity against Influenza A virus (A/WSN/1933(H1N1)) infected in MDCK cells assessed as inhibition of virus induced cytopathic effect; type: functional, organism-based
[4] = system: Plasma; experiment: Metabolic stability in Sprague-Dawley rat plasma assessed as compound degradation after 24 hrs by MALDI-TOF analysis; type: ADME, cell-free
[5] = system: Plasma; experiment: Metabolic stability in Sprague-Dawley rat plasma assessed as compound degradation after 24 hrs by LC-QTOF MS analysis; type: ADME, cell-free
[6] = system: RAW264.7; experiment: Antiinflammatory activity in LPS-activated mouse RAW264.7 cells assessed as inhibition of LPS induced TNFalpha production treated 30 mins prior to LPS challenge measured after 6 hrs by RT-PCR analysis; type: functional, cell-based
[7] = system: RAW264.7; experiment: Antiinflammatory activity in LPS-activated mouse RAW264.7 cells assessed as inhibition of LPS induced IL6 production treated 30 mins prior to LPS challenge measured after 6 hrs by RT-PCR analysis; type: functional, cell-based
[8] = system: Influenza A virus; experiment: Antiviral activity against Influenza A virus (A/California/07/2009(H1N1)) infected in BALB/c mouse assessed as protection from virus-induced death at 12 umol/kg/day, intranasally administered bid on days 1 to 4 and day 0 of infection measured over 14 days; type: functional, organism-based
[9] = system: Influenza A virus; experiment: Antiviral activity against recombinant Influenza A virus (A/VietNam/1194/2004(H5N1)) NIBRG-14 assessed as inhibition of virus induced cytopathic effect; type: functional, organism-based
[10] = system: Mus musculus; experiment: Antiinflammatory activity in mouse infected with Influenza A virus (A/VietNam/1194/2004(H5N1)) NIBRG-14 assessed as reduction in IL6 level in serum at 12 umol/kg/day, intranasally administered after 72 hrs by ELISA; type: functional, organism-based
[11] = system: Influenza A virus; experiment: Antiviral activity against Influenza A virus (A/California/07/2009(H1N1)) infected in BALB/c mouse assessed as protection from virus-induced death at 0.0012 umol/kg/day, intranasally administered bid on days 1 to 4 and day 0 of infection measured over 14 days; type: functional, organism-based
[12] = system: Plasma; experiment: Metabolic stability in Sprague-Dawley rat plasma assessed as formation of compound 6 after 24 hrs by MALDI-TOF analysis; type: ADME, cell-free
[13] = system: Mus musculus; experiment: Antiinflammatory activity in mouse infected with Influenza A virus (A/VietNam/1194/2004(H5N1)) NIBRG-14 assessed as reduction in IFN-gamma level in serum at 12 umol/kg/day, intranasally administered after 72 hrs by ELISA; type: functional, organism-based
[14] = system: Influenza A virus; experiment: Antiviral activity against Influenza A virus (A/VietNam/1194/2004(H5N1)) NIBRG-14 infected in BALB/c mouse assessed as protection from virus-induced death at 12 umol/kg/day, intranasally administered bid on days 1 to 4 and day 0 of infection measured over 14 days; type: functional, organism-based
[15] = system: Influenza A virus; experiment: Antiviral activity against Influenza A virus (A/California/07/2009(H1N1)) infected in BALB/c mouse assessed as protection from virus-induced death at 0.12 umol/kg/day, intranasally administered bid on days 1 to 4 and day 0 of infection measured over 14 days; type: functional
[16] = system: Influenza A virus; experiment: Antiviral activity against Influenza A virus (A/California/07/2009(H1N1)) infected in BALB/c mouse assessed as protection from virus-induced death at 0.012 umol/kg/day, intranasally administered bid on days 1 to 4 and day 0 of infection measured over 14 days; type: functional
[17] = system: Plasma; experiment: Metabolic stability in Sprague-Dawley rat plasma assessed as formation of compound 6 after 24 hrs by LC-QTOF MS analysis; type: ADME, cell-free
[18] = system: Influenza A virus; experiment: Antiviral activity against Influenza A virus (A/California/07/2009(H1N1)) infected in BALB/c mouse assessed as protection from virus-induced death at 1.2 umol/kg/day, intranasally administered bid on days 1 to 4 and day 0 of infection measured after 14 days; type: functional
[19] = system: Influenza A virus; experiment: Ratio of zanamivir EC50 to compound EC50 for Influenza A virus (A/VietNam/1194/2004(H5N1)) NIBRG-14; type: functional
[20] = system: Plasma; experiment: Metabolic stability in Sprague-Dawley rat plasma assessed as release of zanamivir and caffiec acid after 24 hrs by MALDI-TOF analysis; type: ADME, cell-free
[21] = system: Plasma; experiment: Metabolic stability in Sprague-Dawley rat plasma assessed as release of zanamivir and caffiec acid after 24 hrs by LC-QTOF MS analysis; type: ADME, cell-free
[22] = system: Influenza A virus; experiment: Antiviral activity against Influenza A virus (A/California/07/2009(H1N1)) infected in BALB/c mouse assessed as protection from virus-induced death at 1.2 umol/kg/day, intranasally administered bid on days 1 to 4 and day 0 of infection measured after 12 days; type: functional, organism-based
[23] = system: Plasma; experiment: Metabolic stability in Sprague-Dawley rat plasma after 24 hrs by MALDI-TOF analysis; type: ADME, cell-free
[24] = system: Influenza A virus; experiment: Antiviral activity against Influenza A virus (A/VietNam/1194/2004(H5N1)) NIBRG-14 infected in BALB/c mouse assessed as protection from virus-induced death at 1.2 umol/kg/day, intranasally administered bid on days 1 to 4 and day 0 of infection measured over 14 days; type: functional, organism-based
[25] = system: Plasma; experiment: Metabolic stability in Sprague-Dawley rat plasma after 24 hrs by LC-QTOF MS analysis; type: ADME, cell-free

Neuraminidase (Influenza A virus (strain A/Wilson-Smith/1933 H1N1) (Influenza A virus(strain A/WS/1933 H1N1)), UniProt P03470), sequence (P03470 whole entry): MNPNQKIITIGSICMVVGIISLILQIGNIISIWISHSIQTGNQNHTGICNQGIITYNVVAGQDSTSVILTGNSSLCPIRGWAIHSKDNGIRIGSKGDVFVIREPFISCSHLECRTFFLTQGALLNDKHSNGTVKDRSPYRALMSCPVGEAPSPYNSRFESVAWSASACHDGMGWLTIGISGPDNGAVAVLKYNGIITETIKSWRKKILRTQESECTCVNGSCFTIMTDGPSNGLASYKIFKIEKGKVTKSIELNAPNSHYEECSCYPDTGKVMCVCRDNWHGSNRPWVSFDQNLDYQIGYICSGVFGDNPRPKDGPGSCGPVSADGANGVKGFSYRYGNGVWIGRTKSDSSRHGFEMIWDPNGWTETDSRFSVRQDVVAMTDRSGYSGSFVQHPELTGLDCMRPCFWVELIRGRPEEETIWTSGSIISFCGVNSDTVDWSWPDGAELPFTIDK

Row | SMILES | IC50 [1] [nM] | Activity [2] | EC50 [3] [nM] | further results
1 | CC(=O)N[C@H]1[C@H]([C@H](OC(=O)NCCCNC(=O)c2ccc3ccccc3c2O)[C@H](O)CO)OC(C(=O)O)=C[C@@H]1NC(=N)N | 3.1 | Non-toxic | 6.6 | –
2 | CC(=O)N[C@H]1[C@H]([C@H](O)[C@H](O)CO)OC(C(=O)OCCCOC(=O)c2ccc3ccccc3c2O)=C[C@@H]1NC(=N)N | 590 | Non-toxic | – | Stability [4]: Unstable; Stability [5]: Unstable
3 | Nc1ccc(O)c(C(=O)O)c1 [MESALAMINE] | > 100000 | Non-toxic | > 100000 | Activity [6]: Dose-dependent effect; Activity [7]: Dose-dependent effect; Activity [8]: Active
4 | CC(=O)N[C@H]1[C@H]([C@H](OC(=O)NCCCO)[C@H](O)CO)OC(C(=O)O)=C[C@@H]1NC(=N)N | 11.7 | Non-toxic | 105 | EC50 [9]: 820 nM
5 | CC(=O)N[C@H]1[C@H]([C@H](OC(=O)NCCCOC(=O)/C=C/c2ccc(O)c(O)c2)[C@H](O)CO)OC(C(=O)O)=C[C@@H]1NC(=N)N | 2.9 | Non-toxic | 1.4 | Activity [10]: Active; Activity [6]: Dose-dependent effect; Activity [7]: Dose-dependent effect; Activity [11]: inactive; Stability [12]: Unstable; Stability [4]: Unstable; Activity [13]: Active; Activity [14]: Active; Activity [15]: Active; Activity [16]: 40%; Stability [17]: Unstable; Activity [18]: Active; EC50 [9]: 50 nM; Ratio EC50 [19]: 13; Activity [8]: Active
6 | CC(=O)N[C@H]1[C@H]([C@H](OC(=O)NCCCOC(=O)c2ccc3ccccc3c2O)[C@H](O)CO)OC(C(=O)O)=C[C@@H]1NC(=N)N | 0.7 | Non-toxic | 50 | –
7 | CC(=O)N[C@H]1[C@H]([C@H](O)[C@H](O)CO)OC(C(=O)O)=C[C@@H]1N=C(N)N [ZANAMIVIR] | – | Non-toxic | – | –
8 | CC(=O)N[C@H]1[C@H]([C@H](O)[C@H](O)CO)OC(C(=O)OCCCOC(=O)/C=C/c2ccc(O)c(O)c2)=C[C@@H]1NC(=N)N | 2850 | Non-toxic | 25 | Stability [20]: Unstable; Stability [21]: Unstable
9 | CC(=O)N[C@H]1[C@H]([C@H](OC(=O)NCCCOC(=O)/C=C/c2ccc3c(c2)OCO3)[C@H](O)CO)OC(C(=O)O)=C[C@@H]1NC(=N)N | 5.4 | Non-toxic | 66 | –
10 | O=C(O)/C=C/c1ccc(O)c(O)c1 [CAFFEIC ACID] | > 100000 | Non-toxic | > 100000 | Activity [6]: Dose-dependent effect; Activity [7]: Dose-dependent effect; Activity [22]: inactive; Activity [8]: Active
11 | CC(=O)N[C@H]1[C@H]([C@H](O)[C@H](O)CO)OC(C(=O)O)=C[C@@H]1NC(=N)N [ZANAMIVIR] | – | – | 3.5 | Activity [10]: Active; Activity [13]: Active; Activity [14]: inactive; Activity [22]: inactive; Activity [8]: Active
12 | CC(=O)N[C@H]1[C@H]([C@H](OC(=O)NCCCNC(=O)/C=C/c2ccc(O)c(O)c2)[C@H](O)CO)OC(C(=O)O)=C[C@@H]1NC(=N)N | 41.3 | Non-toxic | 5.1 | Activity [14]: Active; Stability [23]: Stable; Activity [15]: 50%; Activity [16]: inactive; Activity [24]: Active; Activity [18]: 100%; Stability [25]: Stable
13 | O=C(O)/C=C/c1ccc2c(c1)OCO2 | > 100000 | Non-toxic | > 100000 | Activity [6]: Dose-dependent effect; Activity [7]: Dose-dependent effect
14 | CC(=O)N[C@H]1[C@H]([C@H](O)[C@H](O)CO)OC(C(=O)OCCCOC(=O)c2cc(N)ccc2O)=C[C@@H]1NC(=N)N | 996 | Non-toxic | 16 | –
15 | CC(=O)N[C@H]1[C@H]([C@H](OC(=O)NCCCOC(=O)c2cc(N)ccc2O)[C@H](O)CO)OC(C(=O)O)=C[C@@H]1NC(=N)N | 8.6 | Non-toxic | 3.3 | Activity [10]: Active; Activity [6]: Dose-dependent effect; Activity [7]: Dose-dependent effect; Stability [4]: Unstable; Activity [13]: Active; Activity [14]: inactive; EC50 [9]: 430 nM; Activity [8]: Active
16 | CC(=O)N[C@H]1[C@H]([C@H](OC(=O)NCCCOC(=O)c2ccc(O)c(O)c2)[C@H](O)CO)OC(C(=O)O)=C[C@@H]1NC(=N)N | 2.9 | Non-toxic | 53 | –
17 | O=C(O)c1ccc2ccccc2c1O [CARBOXYNAPHTHOL] | > 100000 | Non-toxic | > 100000 | –
18 | CC(=O)N[C@H]1[C@H]([C@H](O)[C@H](O)CO)OC(C(=O)OCCCOC(=O)/C=C/c2ccc3c(c2)OCO3)=C[C@@H]1NC(=N)N | 3990 | Non-toxic | 28 | –
